In ChEMBL document CHEMBL5143520, “Discovery and optimization of new 6, 7-dihydroxy-1, 2, 3, 4-tetrahydroisoquinoline derivatives as potent influenza virus PAN inhibitors” (Eur J Med Chem, 2022):
Activity calls are given as the source filed them. The rule behind the calls is not given here.

Columns and labels:
[1] = system: Influenza A virus; assay: Antiviral activity against Influenza A virus A/WSN/33(H1N1) infected in MDCK cells assessed as reduction in virus induced cytopathic effect measured 48 hrs post infection by MTT assay; type: functional, organism-based
[2] = Cytotoxicity against MDCK cells assessed as reduction in cell viability incubated for 48 hrs by MTT assay; type: toxicity, cell-based, Canis lupus familiaris; settings: dog
[3] = molecular target: Polymerase acidic protein (Influenza A virus (A/Puerto Rico/8/1934(H1N1)), UniProt P03433); assay: Inhibition of Influenza A virus N-terminal domain of PA endonuclease using 6FAM-TGGCAATATCAGCTCCACA-MGBNFQ as fluorescent substrate by FRET analysis
[4] = Selectivity index, ratio of CC50 for cytotoxicity against MDCK cells to EC50 for antiviral activity against Influenza A virus A/WSN/33(H1N1) infected in MDCK cells; type: toxicity, cell-based; settings: dog, read-out: Ratio CC50/EC50
[5] = system: Influenza A virus; assay: Antiviral activity against Influenza A virus A/WSN/33(H1N1) infected in MDCK cells assessed as reduction in nucleoprotein […] expression at 20 uM measured after 0 to 10 hrs by Western blot based time-of-addition assay; type: functional, organism-based; settings: time 0-10 hrs
[6] = system: Influenza A virus; assay: Antiviral activity against Influenza A virus A/WSN/33(H1N1) infected in human A549 cells assessed as reduction in nucleoprotein expression at 5 to 20 uM measured 24 hrs post infection by Western blot analysis; type: functional, organism-based; settings: dose 5-20 µM
[7] = system: Influenza A virus; assay: Antiviral activity against Influenza A virus A/WSN/33(H1N1) infected in MDCK cells assessed as inhibition of virus replication and translation by measuring reduction in nucleoprotein […] expression at 20 uM measured after 2 to 8 hrs by Western blot based time-of-addition assay; type: functional, organism-based; settings: time 2-8 hrs
[8] = system: Influenza A virus; assay: Antiviral activity against Influenza A virus A/WSN/33(H1N1) infected in MDCK cells assessed as distribution of PAN protein expression in nucleus and cytoplasm measured 24 hrs post infection by DAPI staining based microscopic analysis; type: functional, organism-based
[9] = system: Influenza A virus; assay: Antiviral activity against Influenza A virus A/WSN/33(H1N1) infected in human A549 cells assessed as reduction in nucleoprotein mRNA expression at 5 to 20 uM measured 24 hrs post infection by qRT-PCR analysis; type: functional, organism-based; settings: dose 5-20 µM

| Structure (SMILES) | EC50 [1] | CC50 at 48 h [2] | selectivity ratio [4] | further results |
| --- | --- | --- | --- | --- |
| CCN(CC)C(=O)[C@@H]1Cc2cc(O)c(O)cc2[C@H](Cc2ccc(O)c(O)c2)N1C=O | > 10 µM | > 100 µM |  |  |
| O=CN1[C@H](C(=O)Oc2ccccc2)Cc2cc(O)c(O)cc2[C@@H]1Cc1ccc(O)c(O)c1 | 7.6 µM | 77.7 µM | 10.2 | IC50 [3]: 0.45 µM |
| COC(=O)[C@@H]1Cc2cc(O)c(O)cc2[C@H](Cc2ccc(O)c(O)c2)N1C(=O)CNC(C)=O | > 20 µM |  |  |  |
| CN(Cc1ccccc1)C(=O)[C@@H]1Cc2cc(O)c(O)cc2[C@H](Cc2ccc(O)c(O)c2)N1C=O | 8.68 µM | 91.9 µM | 10.6 |  |
| O=CN1[C@H](C(=O)NCc2ccccc2)Cc2cc(O)c(O)cc2[C@@H]1Cc1ccc(O)c(O)c1 | > 10 µM | > 100 µM |  |  |
| CCOC(=O)[C@@H]1Cc2cc(O)c(O)cc2[C@H](Cc2ccc(O)c(O)c2)N1C=O | 6.88 µM | > 100 µM | > 14.5 |  |
| COC(=O)[C@@H]1Cc2cc(O)c(O)cc2[C@H](Cc2ccc(O)c(O)c2)N1C(C)=O | 7.65 µM | > 100 µM | > 13.1 | IC50 [3]: 0.53 µM |
| O=CN1[C@H](C(=O)Oc2ccccc2Br)Cc2cc(O)c(O)cc2[C@@H]1Cc1ccc(O)c(O)c1 | 3.21 µM | 57.1 µM | 17.8 | IC50 [3]: 0.26 µM |
| O=CN1[C@H](C(=O)O)Cc2cc(O)c(O)cc2[C@@H]1Cc1ccc(O)c(O)c1 | > 20 µM | > 100 µM |  |  |
| O=CN1[C@H](C(=O)Nc2ccccc2)Cc2cc(O)c(O)cc2[C@@H]1Cc1ccc(O)c(O)c1 | > 10 µM | > 100 µM |  |  |
| O=CN1[C@H](C(=O)Oc2cccc(Cl)c2)Cc2cc(O)c(O)cc2[C@@H]1Cc1ccc(O)c(O)c1 | 6.09 µM | 84.3 µM | 13.8 |  |
| O=CN1[C@H](C(=O)Oc2ccccc2Cl)Cc2cc(O)c(O)cc2[C@@H]1Cc1ccc(O)c(O)c1 | 4.5 µM | > 100 µM | > 22.2 | Activity [5]: Active; Activity [6]: Active; Activity [7]: Active; IC50 [3]: 0.28 µM; Activity [8]: Active; Activity [9]: Active |
| CCCC(=O)N1[C@H](C(=O)OC)Cc2cc(O)c(O)cc2[C@@H]1Cc1ccc(O)c(O)c1 | > 10 µM | > 100 µM |  |  |
| CN1CCc2cc(O)c(O)cc2C1Cc1ccc(O)c(O)c1 (racemic) | > 20 µM | > 100 µM |  | IC50 [3]: 1.88 µM |
| O=C(O[C@@H]1Cc2c(O)cc(O)cc2O[C@@H]1c1cc(O)c(O)c(O)c1)c1cc(O)c(O)c(O)c1 [EPIGALOCATECHIN GALLATE] |  |  |  | IC50 [3]: 5.86 µM |
| CCC(CC)[C@H](NC(C)=O)[C@@H]1[C@H](O)[C@@H](C(=O)O)C[C@H]1NC(=N)N [PERAMIVIR ANHYDROUS] |  | > 100 µM | > 19 |  |
| COc1ccc(NC(=O)[C@@H]2Cc3cc(O)c(O)cc3[C@H](Cc3ccc(O)c(O)c3)N2C=O)cc1 | 6.12 µM | 50.9 µM | 8.3 |  |

| Structure (SMILES) | EC50 [1] | CC50 at 48 h [2] | selectivity ratio [4] | further results |
| --- | --- | --- | --- | --- |
| CCCOC(=O)[C@@H]1Cc2cc(O)c(O)cc2[C@H](Cc2ccc(O)c(O)c2)N1C=O | 7.72 µM | 75.1 µM | 9.7 |  |
| CN(C)C(=O)[C@@H]1Cc2cc(O)c(O)cc2[C@H](Cc2ccc(O)c(O)c2)N1C=O | > 10 µM | > 100 µM |  |  |
| CCC(=O)N1[C@H](C(=O)OC)Cc2cc(O)c(O)cc2[C@@H]1Cc1ccc(O)c(O)c1 | > 10 µM | > 100 µM |  |  |
| O=CN1[C@H](C(=O)Oc2ccc(Cl)cc2Cl)Cc2cc(O)c(O)cc2[C@@H]1Cc1ccc(O)c(O)c1 | 3.76 µM | 21.4 µM | 5.7 |  |
| COc1ccc(CNC(=O)[C@@H]2Cc3cc(O)c(O)cc3[C@H](Cc3ccc(O)c(O)c3)N2C=O)cc1 | > 10 µM | > 100 µM |  |  |
| COC(=O)[C@@H]1Cc2cc(O)c(O)cc2[C@H](Cc2ccc(O)c(O)c2)N1C(=O)CCl | 6.49 µM | 34.5 µM | 5.3 |  |
| O=CN1[C@H](C(=O)Nc2ccc(Cl)cc2)Cc2cc(O)c(O)cc2[C@@H]1Cc1ccc(O)c(O)c1 | 7.89 µM | > 100 µM | > 12.7 |  |
| O=CN1[C@H](C(=O)Oc2ccc(Cl)cc2)Cc2cc(O)c(O)cc2[C@@H]1Cc1ccc(O)c(O)c1 | 3.86 µM | 57.6 µM | 15 |  |
| COC(=O)[C@@H]1Cc2cc(O)c(O)cc2[C@H](Cc2ccc(O)c(O)c2)N1C(=O)C(F)(F)F | 6.76 µM | 76.4 µM | 11.3 | IC50 [3]: 0.5 µM |
| O=CN1[C@H](C(=O)Oc2ccccc2F)Cc2cc(O)c(O)cc2[C@@H]1Cc1ccc(O)c(O)c1 | 5.23 µM | 61.2 µM | 11.7 | IC50 [3]: 0.37 µM |
| O=CN1[C@H](C(=O)Oc2ccc(Br)cc2)Cc2cc(O)c(O)cc2[C@@H]1Cc1ccc(O)c(O)c1 | 3.23 µM | 32.1 µM | 9.8 |  |
| COC(=O)[C@@H]1Cc2cc(O)c(O)cc2[C@H](Cc2ccc(O)c(O)c2)N1C=O | 7.04 µM | > 100 µM | > 14.2 | IC50 [3]: 0.68 µM |
| O=CN1[C@H](C(=O)Oc2cccc(F)c2)Cc2cc(O)c(O)cc2[C@@H]1Cc1ccc(O)c(O)c1 | 4.72 µM | 55.6 µM | 11.8 |  |
| O=CN1[C@H](C(=O)NCc2ccco2)Cc2cc(O)c(O)cc2[C@@H]1Cc1ccc(O)c(O)c1 | > 10 µM | > 100 µM |  |  |
| O=CN1[C@H](C(=O)Oc2c(Cl)cccc2Cl)Cc2cc(O)c(O)cc2[C@@H]1Cc1ccc(O)c(O)c1 | 2.57 µM | 24.8 µM | 9.6 |  |
| O=CN1[C@H](C(=O)NCc2cccs2)Cc2cc(O)c(O)cc2[C@@H]1Cc1ccc(O)c(O)c1 | > 10 µM | > 100 µM |  |  |
